The record followed here is US7323260B2, “Lubricant, recording medium and carboxylic acid compound” (Sony Corporation, priority 2003, dated 2008).

A short description of the data set: Evaluation of solubility in solvent. Format: physicochemical. On the procedure: Solubility of lubricants which were used in Examples 1 to 11 and Comparative Example 3 in each of ethanol, acetone and toluene was evaluated. Evaluation results of solubility of the lubricants are shown in Table 10 by evaluation criteria as defined as follows: […]
Solubility of lubricants which were used in Examples 21 to 37 in each of ethanol, acetone and toluene was evaluated. Evaluation results of solubility of lubricants are shown in Table 19 by evaluation criteria as defined as follows: […]

On to “C18H37CH(COOC12H25)(CH2)2COOCH2CF2(OCF2)p(OCF(CF3)CF2)qOCF3 [Comparative Example 3]”, for which the “solubility in a hydrocarbon type solvent (in words)” value was “hardly dissolved”.
